According to PubChem BioAssay (NCI):
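Growth conditions: 96-well plates. Treatment: test compound, 48 hours, 5 concentrations. Analysis: linear interpolation between bracketing concentrations; unreached endpoints set to highest concentration. GI50 = concentration required for 50% inhibition of growth. The concentration for full growth arrest is given as TGI.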

What was measured:
Experiment in all cases: NCI-60 cell line screen, 48 h
[1] = test system: CCRF-CEM leukemia
[2] = test system: A549 NSCLC
[3] = test system: MALME-3M melanoma
[4] = test system: SK-MEL-28 melanoma
[5] = test system: NCI-H522 lung
[6] = test system: KM12 colon
[7] = test system: TK-10 renal
[8] = test system: COLO 205 colon
[9] = test system: 786-0 renal
[10] = test system: OVCAR-5 ovarian
[11] = test system: BT-549 breast
[12] = test system: HOP-62 NSCLC
[13] = test system: HS 578T breast
[14] = test system: PC-3 prostate
[15] = test system: IGROV1 ovarian
[16] = test system: OVCAR-4 ovarian
[17] = test system: ACHN renal
[18] = test system: CAKI-1 renal
[19] = test system: NCI-H460 lung
[20] = test system: SK-MEL-2 melanoma
[21] = test system: K-562 leukemia
[22] = test system: OVCAR-3 ovarian
[23] = test system: DU-145 prostate
[24] = test system: HCT-15 colon
[25] = test system: SR leukemia
[26] = test system: LOX IMVI melanoma
[27] = test system: SF-295 CNS
[28] = test system: NCI-H23 lung
[29] = test system: HCT-116 colon
[30] = test system: HT29 colon
[31] = test system: UACC-62 melanoma
[32] = test system: HOP-92 NSCLC
[33] = test system: T-47D breast
[34] = test system: SK-OV-3 ovarian
[35] = test system: UO-31 renal
[36] = test system: RXF 393 renal
[37] = test system: RPMI-8226 leukemia
[38] = test system: NCI-H226 lung
[39] = test system: SN12C renal
[40] = test system: MDA-MB-231 breast
[41] = test system: SW-620 colon
[42] = test system: NCI/ADR-RES ovarian
[43] = test system: MOLT-4 leukemia
[44] = test system: M14 melanoma
[45] = test system: SK-MEL-5 melanoma
[46] = test system: MDA-MB-435
[47] = test system: SF-268 CNS
[48] = test system: MCF7 breast
[49] = test system: EKVX NSCLC
[50] = test system: SNB-19 CNS
[51] = test system: OVCAR-8 ovarian
[52] = test system: U251 CNS
[53] = test system: SNB-75 CNS
[54] = test system: UACC-257 melanoma
[55] = test system: HL-60(TB) leukemia
[56] = test system: A498 renal
[57] = test system: HCC-2998 colon

Compound: O=C1C(Cl)=C(Nc2cccc(O)c2)C(=O)N1CCc1ccccc1
- GI50 [1]: 12.6 µM
- TGI [1]: 69.4 µM
- GI50 [2]: 20.6 µM
- TGI [2]: 46.4 µM
- GI50 [3]: 16.2 µM
- TGI [3]: 33 µM
- GI50 [4]: 19.8 µM
- TGI [4]: 40.8 µM
- GI50 [5]: 13.2 µM
- TGI [5]: 29.2 µM
- GI50 [6]: 15.5 µM
- TGI [6]: 34 µM
- GI50 [7]: 23.1 µM
- TGI [7]: 48.4 µM
- GI50 [8]: 33.2 µM
- TGI [8]: > 100 µM
- GI50 [9]: 19.2 µM
- TGI [9]: 36.6 µM
- GI50 [10]: 20.7 µM
- TGI [10]: 46.8 µM
- GI50 [11]: 17.9 µM
- TGI [11]: 47.1 µM
- GI50 [12]: 19.2 µM
- TGI [12]: 38.4 µM
- GI50 [13]: 17.5 µM
- TGI [13]: 40.5 µM
- GI50 [14]: 22.3 µM
- TGI [14]: 62.7 µM
- GI50 [15]: 15 µM
- TGI [15]: 35.4 µM
- GI50 [16]: 20.1 µM
- TGI [16]: 55.3 µM
- GI50 [17]: 22.9 µM
- TGI [17]: 47.5 µM
- GI50 [18]: 22.5 µM
- TGI [18]: 56.3 µM
- GI50 [19]: 18 µM
- TGI [19]: 39.8 µM
- GI50 [20]: 14.5 µM
- TGI [20]: 33.7 µM
- GI50 [21]: 16.8 µM
- TGI [21]: 63.9 µM
- GI50 [22]: 15.4 µM
- TGI [22]: 34.3 µM
- GI50 [23]: 15.3 µM
- TGI [23]: 32.5 µM
- GI50 [24]: 22.4 µM
- TGI [24]: 57.8 µM
- GI50 [25]: 4.61 µM
- TGI [25]: 64.3 µM
- GI50 [26]: 16.9 µM
- TGI [26]: 39.6 µM
- GI50 [27]: 21.8 µM
- TGI [27]: 46.6 µM
- GI50 [28]: 17.7 µM
- TGI [28]: 36.4 µM
- GI50 [29]: 24.3 µM
- TGI [29]: 73.3 µM
- GI50 [30]: 24.3 µM
- TGI [30]: 82.5 µM
- GI50 [31]: 13.9 µM
- TGI [31]: 29.1 µM
- GI50 [32]: 15.9 µM
- TGI [32]: 36.4 µM
- GI50 [33]: 40.5 µM
- TGI [33]: > 100 µM
- GI50 [34]: 32.1 µM
- TGI [34]: > 100 µM
- GI50 [35]: 16.7 µM
- TGI [35]: 36.8 µM
- GI50 [36]: 25.9 µM
- TGI [36]: 71.4 µM
- GI50 [37]: 5.03 µM
- TGI [37]: 37.6 µM
- GI50 [38]: 22 µM
- TGI [38]: 45.6 µM
- GI50 [39]: 16 µM
- TGI [39]: 32.6 µM
- GI50 [40]: 23.3 µM
- TGI [40]: 44.4 µM
- GI50 [41]: 30.9 µM
- TGI [41]: 77.5 µM
- GI50 [42]: 20.1 µM
- TGI [42]: 49 µM
- GI50 [43]: 9.4 µM
- TGI [43]: 59 µM
- GI50 [44]: 17.7 µM
- TGI [44]: 37.9 µM
- GI50 [45]: 20.2 µM
- TGI [45]: 38 µM
- GI50 [46]: 15.7 µM
- TGI [46]: 37.1 µM
- GI50 [47]: 17 µM
- TGI [47]: 42.2 µM
- GI50 [48]: 14.4 µM
- TGI [48]: 33.6 µM
- GI50 [49]: 19.3 µM
- TGI [49]: 40.9 µM
- GI50 [50]: 22.6 µM
- TGI [50]: 49.4 µM
- GI50 [51]: 21.5 µM
- TGI [51]: 51.1 µM
- GI50 [52]: 19.1 µM
- TGI [52]: 42.1 µM

Compound: COC1CCN(N(C)C)O1 (centres undefined)
- TGI [1]: > 100 µM
- TGI [2]: > 100 µM
- TGI [53]: > 100 µM
- TGI [54]: > 100 µM
- TGI [55]: > 100 µM
- TGI [3]: > 100 µM
- TGI [4]: > 100 µM
- TGI [5]: > 100 µM
- TGI [6]: > 100 µM
- TGI [7]: > 100 µM
- TGI [8]: > 100 µM
- TGI [9]: > 100 µM
- TGI [56]: > 100 µM
- TGI [10]: > 100 µM
- TGI [11]: > 100 µM
- TGI [12]: > 100 µM
- TGI [13]: > 100 µM
- TGI [14]: > 100 µM
- TGI [15]: > 100 µM
- TGI [16]: > 100 µM
- TGI [17]: > 100 µM
- TGI [18]: > 100 µM
- TGI [19]: > 100 µM
- TGI [20]: > 100 µM
- TGI [21]: > 100 µM
- TGI [22]: > 100 µM
- TGI [23]: > 100 µM
- TGI [24]: > 100 µM
- TGI [25]: > 100 µM
- TGI [26]: > 100 µM
- TGI [27]: > 100 µM
- TGI [28]: > 100 µM
- TGI [29]: > 100 µM
- TGI [30]: > 100 µM
- TGI [31]: > 100 µM
- TGI [33]: > 100 µM
- TGI [35]: > 100 µM
- TGI [36]: > 100 µM
- TGI [37]: > 100 µM
- TGI [38]: > 100 µM
- TGI [39]: > 100 µM
- TGI [40]: > 100 µM
- TGI [41]: > 100 µM
- TGI [42]: > 100 µM
- TGI [43]: > 100 µM
- TGI [44]: > 100 µM
- TGI [45]: > 100 µM
- TGI [46]: > 100 µM
- TGI [47]: > 100 µM
- TGI [48]: > 100 µM
- TGI [49]: > 100 µM
- TGI [57]: > 100 µM
- TGI [50]: > 100 µM
- TGI [51]: > 100 µM
- TGI [52]: > 100 µM
